Results from US6958351B2, “NMDA NR2B antagonists for treatment” (Pfizer Inc, priority 2000, dated 2005).

- melting point: 159 to 160 °C
SMILES: Oc1ccc2c(c1)OCC(N1CCC(O)(c3ccc(F)cc3)CC1)[C@H]2O (stereo in doubt)
